Assay results reported in the NIST ThermoML archive (doi:10.1016/j.fluid.2012.10.002).

Assay: xn = mol fraction of the nth substance listed
Settings: Gas, Frequency=0.05 MHz, Linear variable-path acoustic interferometer, x1 = 1

FC(F)(F)C(F)(F)F [hexafluoroethane] + FC(F)(F)C(F)(F)C(F)(F)F
Settings	speed of sound [m/s]
261.1 K, 183 kPa	127.95
263.74 K, 185 kPa	128.64
266.3 K, 186 kPa	129.3
268.82 K, 188 kPa	129.95
270.22 K, 189 kPa	130.3
271.26 K, 190 kPa	130.57
273.89 K, 192 kPa	131.26
276.33 K, 194 kPa	131.87
278.84 K, 195 kPa	132.51
281.3 K, 197 kPa	133.11
281.31 K, 197 kPa	133.1
283.84 K, 199 kPa	133.77
286.31 K, 201 kPa	134.35
288.82 K, 203 kPa	135
293.64 K, 206 kPa	136.18
296.91 K, 208 kPa	136.93
301.03 K, 212 kPa	137.94
303.69 K, 213 kPa	138.56
306.24 K, 215 kPa	139.22
308.82 K, 217 kPa	139.82
311.28 K, 219 kPa	140.41
313.79 K, 221 kPa	141
318.78 K, 224 kPa	142.17
323.78 K, 228 kPa	143.37
